Data taken from ChEMBL document CHEMBL4819059, “3-Hydroxy-4-methyldecanoic Acid-Containing Cyclotetradepsipeptides from an Endolichenic Beauveria sp” (J Nat Prod, 2021).
Activity calls are given as the source filed them. The rule behind the calls is not given here.

What was measured:
Assay type in all cases: functional, cell-based
[1] = test system: L6; experiment: Induction of glucose uptake in rat L6 myoblasts at 50 uM after 24 hrs
[2] = test system: L6; experiment: Induction of glucose uptake in rat L6 myotubes after 24 to 48 hrs; conditions: dose 2.5-80 µM, time 24-48 hrs
[3] = test system: L6; experiment: Induction of glucose uptake in rat L6 myoblasts after 24 hrs; conditions: dose 0.3125-80 µM
[4] = test system: HEI-OC1; experiment: Protective activity against […] HEI-OC1 cells assessed as cell viability at 10 uM after 48 hrs by CCK8 assay

Compound: CCCCCCC(C)[C@@H]1CC(=O)N[C@@H](Cc2ccc(O)cc2)C(=O)N[C@@H](Cc2ccc(O)cc2)C(=O)N[C@H]([C@@H](C)CC)C(=O)O1 (some centres undefined)
- Activity [1]: Active

Compound: CCCCCC[C@H](C)[C@@H]1CC(=O)N[C@@H](Cc2c[nH]c3ccccc23)C(=O)N[C@@H](Cc2ccccc2)C(=O)N[C@H]([C@@H](C)CC)C(=O)O1
- Activity [2]: Dose-Dependent Effect
- Activity [3]: Dose-Dependent Effect
- Activity [1]: Active
- Activity [4]: Active

Compound: CCCCCC[C@H](C)[C@@H]1CC(=O)N[C@@H](Cc2ccc(O)cc2)C(=O)N[C@@H](Cc2ccccc2)C(=O)N[C@H]([C@@H](C)CC)C(=O)O1
- Activity [4]: Active

Compound: CCCCCC[C@H](C)[C@@H]1CC(=O)N[C@@H](Cc2c[nH]c3ccccc23)C(=O)N[C@@H](Cc2ccc(O)cc2)C(=O)N[C@H]([C@@H](C)CC)C(=O)O1
- Activity [1]: Active

Compound: CCCCCC[C@H](C)[C@@H]1CC(=O)N[C@@H](Cc2c[nH]c3ccccc23)C(=O)N[C@@H](Cc2ccc(O)cc2)C(=O)N[C@H](CC(C)C)C(=O)O1
- Activity [1]: Active

Compound: CCCCCC[C@H](C)[C@@H]1CC(=O)N[C@@H](Cc2c[nH]c3ccccc23)C(=O)N[C@@H](Cc2ccccc2)C(=O)N[C@H](CC(C)C)C(=O)O1
- Activity [4]: Active
